Measurements as given in US8779188B2, “Process for the production of L-carnitine tartrate” (Lonza Ltd., priority 2010, dated 2014).

What was measured:
[1] = Solubility of L-carnitine tartrate in ethanol in relation to the water content of the ethanol (FIG. 1); assay type: physicochemical; details: ethanol comprising less than 5% water / no or low amounts of water
Excerpt: Without being bound to theory, it is assumed that the strong improvements of the inventive process are associated with the low solubility of L-carnitine tartrate in ethanol comprising no water or only low amounts of water. […] The relationship of L-carnitine tartrate solubility to the water content of ethanol is shown in the scheme of FIG. 1. […] Thereby, high yields are obtained even when avoiding extreme temperatures for heating and cooling.

[2] = cited from earlier work

solubility in ethanol [1] | SMILES | solubility in ethanol ([1]; L-tartrate) | solubility in ethanol ([1]; listed as carnitine tartrate, L-tartrate) | stability during storage ([2]; normal air moisture, disclosed in EP 0 434 088 A1) | hygroscopicity ([2]; pure carnitine)
– | C[N+](C)(C)C[C@H](O)CC(=O)[O-].O=C(O)C(O)C(O)C(=O)O [L-carnitine tartrate, L-carnitine L-tartrate] | decreased dramatically | very low | stable | –
almost insoluble | C[N+](C)(C)CC(O)CC(=O)[O-] [L-carnitine, 3-hydroxy-4-trimethylammonio-butanoate] | – | – | – | highly hygroscopic
